The target in data set [1] is T1, M. tuberculosis alanine racemase (Mycobacterium tuberculosis, UniProt P9WQA9). In words: biochemical. Conditions: 30-minute pre-incubation with inhibitor, triplicate.
The test system of data set [2] is M. tuberculosis H37Rv. Briefly: Antimicrobial susceptibility in BACTEC MGIT 960 system. Format: cell-based, Mycobacterium tuberculosis. Conditions: for Mtb: antimicrobial activity against M. tuberculosis / Mtb: antimicrobial activity against M. tuberculosis (supplement table): M. tuberculosis H37Rv, BACTEC, 50 and 100 µg/ml; for Growth inhibition of M. tuberculosis H37Rv in BACTEC culture tubes: final concentration of 50 and 100 µg/ml.

Data set [3] deals with M. tuberculosis H37Rv. Briefly: Microbroth dilution MIC determination. Format: cell-based, Mycobacterium tuberculosis. Conditions: for MIC: M. tuberculosis H37Rv, microbroth dilution, 21 days, read-out: MIC against M. tuberculosis.
The subject of a further data set is HeLa cells. In words: Compound cytotoxicity, WST-1 Cell Proliferation Reagent. Format: cell-based. As to conditions: for TC50, cytotoxicity in HeLa cells: 48 hours exposure, WST-1. The protocol: HeLa cells were grown to confluence overnight (37°C, 5% CO2) in Dulbecco's Modified Eagle Medium with 10% fetal bovine serum (Invitrogen, Carlsbad, CA). The following day, 3000 cells were plated into each well of a 96-well plate and grown overnight. Compounds were diluted in culture medium and added to the cells to yield final concentrations of 100, 50, 25, 12.5, and 6.25 µg/ml. The cells were exposed to the compounds for 48 hours, after which the effect on cells was determined using the WST-1 Cell Proliferation Reagent (Roche Applied Science, Indianapolis, IN) according to manufacturer's protocols. Absorbance at 450 nm was used to calculate percent cytotoxicity with respect to a DMSO solvent control. The results were fitted onto a sigmoidal dose-response curve using Prism software to calculate the TC50 (compound concentration that causes 50% cell death).
(Tetrazolium assays rely on reduction of a dye to a coloured formazan, in cell work by metabolically active cells.)

In data set [4] the target is T1, M. tuberculosis alanine racemase. It is filed as binding. Conditions: 4 µM alanine racemase with 1 mM inhibitor. The method, then:
Electrospray ionization mass spectrometry (ESMS) was performed to detect direct interactions of inhibitors with enzyme. A mixture of 15 µl of sample (4 µM alanine racemase with 1 mM inhibitors) was diluted with 15 µl 2% acetonitrile/0.1% formic acid. Samples were then de-salted using C4 ZipTip, eluted into 15 µl 60% acetonitrile/0.1% formic acid, and directly injected into Qtof-micro MS instrument (Waters Corp., Milford, MA).

Data set [5] shares this target. Briefly: biochemical. It is filed as biochemical. Conditions: D-alanine 0.5-2.5 mM, inhibitor 0.01 to 0.98 mM.
Where [6] appears, read: Mycobacterium tuberculosis, 504 h.

In brackets after ≈: the same amount, converted by molar mass. Several values for one entry are separate records, joined by “and”; a condition that tells them apart may be missing. Identical values can stand only once. Like-named read-outs stand apart in the source and are kept apart here. Bounds are passed on as bounds.

T1 sequence (P9WQA9 whole entry): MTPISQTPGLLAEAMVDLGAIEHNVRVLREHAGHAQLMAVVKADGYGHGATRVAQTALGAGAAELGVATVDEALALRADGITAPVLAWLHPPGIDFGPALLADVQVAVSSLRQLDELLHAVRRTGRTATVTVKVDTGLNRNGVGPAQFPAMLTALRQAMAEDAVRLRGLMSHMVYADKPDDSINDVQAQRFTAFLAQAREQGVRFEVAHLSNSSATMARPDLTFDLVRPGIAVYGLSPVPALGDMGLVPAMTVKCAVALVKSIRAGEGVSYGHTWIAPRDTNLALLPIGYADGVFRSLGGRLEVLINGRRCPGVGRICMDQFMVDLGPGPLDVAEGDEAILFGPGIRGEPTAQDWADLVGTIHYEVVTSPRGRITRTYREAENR

Broadly, the IC50 is the concentration that gives 50% inhibition. The compound “2-(hydoxyimino)-6-methyl-2H-benzopyran-3-carboxamide [L2-14]” displayed a concentration for half-maximal inhibition (IC50) in data set [1] of 2.8 µM. Moreover, in the data set on M. tuberculosis H37Rv [2], the “Mtb: antimicrobial activity against M. tuberculosis” value is recorded as “−” and the “Mtb: antimicrobial activity against M. tuberculosis (supplement table)” value (from here on “Mtb: antimicrobial activity … (supplement table)”) is “-”.

As usually defined, the MIC is the smallest concentration in the dilution series that meets the test's criterion for growth inhibition. Regarding `N[C@@H]1CONC1=O` [CS, (4R)-4-amino-3-isoxazolidinone, reference compound], the “Increase in the MIC in the presence of D-alanine” value with M. tuberculosis H37Rv [3] (5 mM D-alanine in the growth medium, data not shown) turned out to be 3 fold. Further, the minimal inhibitory concentration (MIC) in the data set with M. tuberculosis H37Rv [3] (setting [6]) is 6.5 µg/mL and 65 µM. In addition, in the data set on M. tuberculosis H37Rv [2], the “Mtb: antimicrobial activity against M. tuberculosis” value is reported as “+” and the “Mtb: antimicrobial activity … (supplement table)” value is on record as “+”. Further, the “TC50, cytotoxicity in HeLa cells” value in the data set with HeLa cells was determined as 203 µM. Moreover, the “Nature of inhibitor-enzyme interaction by ESMS” value in data set [4] is recorded as “irreversible modification of the enzyme”.

In data set [1], `Cc1ccc(S(=O)(=O)NN(C)C)cc1` [L2-01, N′,N′,4-trimethylbenzenesulfonohydrazide] registered a 50% inhibitory concentration (IC50) of 9 µM. Further, in the data set on M. tuberculosis H37Rv [2], the “Mtb: antimicrobial activity against M. tuberculosis” value is reported as “−” and the “Mtb: antimicrobial activity … (supplement table)” value is on record as “-”.

In turn, `CN(C)NS(=O)(=O)c1ccc2c(c1)Cc1cc(S(=O)(=O)NN(C)C)ccc1-2` [L2-02, 2-N′,2-N′,7-N′,7-N′-tetramethyl-9H-fluorene-2,7-disulfonohydrazide] registered an IC50 in data set [1] of 1.6 µM. For the same compound, in the data set with M. tuberculosis H37Rv [2], the “Mtb: antimicrobial activity against M. tuberculosis” value is reported as “−” and the “Mtb: antimicrobial activity … (supplement table)” value is listed as “-”.

As for `O=C(COc1ccccc1O)NO` [L2-03, N-hydroxy-2-(2-hydroxyphenoxy)acetamide], half-maximal inhibition in data set [1] (IC50) was put at 8.2 µM. For the same compound, in the data set on M. tuberculosis H37Rv [2], the “Mtb: antimicrobial activity against M. tuberculosis” value is given as “−” and the “Mtb: antimicrobial activity … (supplement table)” value is “-”.

Usually Ki stands for the equilibrium dissociation constant of an inhibitor or competing ligand from its target. In the case of `CCOC(=O)CCSc1ccccn1` [L2-04, ethyl 3-(pyridin-2-ylthio)propanoate], the IC50 in data set [1] came to 2.6 µM. For the same compound, in the data set with M. tuberculosis H37Rv [3] (setting [6]), the MIC is 59 µM (≈ 12.5 µg/mL). The compound also gave a Ki in data set [5] of 38 µM. Moreover, in the data set on M. tuberculosis H37Rv [2], the “Mtb: antimicrobial activity against M. tuberculosis” value was “+”, the “Mtb: antimicrobial activity … (supplement table)” value is “+” and the “Growth inhibition of M. tuberculosis H37Rv in BACTEC culture tubes” value (shortened to “Growth inhibition”) was “inhibited growth at both concentrations”. In the data set on HeLa cells, the “TC50, cytotoxicity in HeLa cells” value amounted to 229.8 µM. For the same compound, the “Nature of inhibitor-enzyme interaction by ESMS” value in data set [4] is on record as “reversible”.

In the case of `CS(=O)(=O)c1ncc(Cl)c(C(=O)NCc2ccccc2)n1` [L2-05, N-benzyl-5-chloro-2-methylsulfonylpyrimidine-4-carboxamide], half-maximal inhibition in data set [1] (IC50) required 6.8 µM. The MIC with M. tuberculosis H37Rv [3] (setting [6]) is 9 µM (≈ 2.93 µg/mL). In addition, in data set [5], the affinity corresponds to a Ki of 630 µM. Besides, in the data set on M. tuberculosis H37Rv [2], the “Mtb: antimicrobial activity against M. tuberculosis” value is reported as “+”, the “Mtb: antimicrobial activity … (supplement table)” value is listed as “+” and the “Growth inhibition” value was “inhibited growth at both concentrations”. Also, in the data set on HeLa cells, the “TC50, cytotoxicity in HeLa cells” value worked out at 20 µM. Moreover, the “Nature of inhibitor-enzyme interaction by ESMS” value in data set [4] is reported as “irreversible”.

Consider `COc1ccc(NC(=O)c2nc(S(C)(=O)=O)ncc2Cl)cc1Cl` [L2-06, 5-chloro-N-(3-chloro-4-methoxyphenyl)2(methylsulfonyl)pyrimidine-4carboxamide], for which the 50% inhibitory concentration (IC50) in data set [1] amounted to 8.2 µM. For the same compound, in the data set on M. tuberculosis H37Rv [3] (setting [6]), the minimal inhibitory concentration (MIC) is under 4.5 µM. Besides, in data set [5], the Ki was found to be 760 µM. For the same compound, in the data set on M. tuberculosis H37Rv [2], the “Mtb: antimicrobial activity against M. tuberculosis” value was “+”, the “Mtb: antimicrobial activity … (supplement table)” value was “+” and the “Growth inhibition” value is “inhibited growth at both concentrations”. For the same compound, the “TC50, cytotoxicity in HeLa cells” value in the data set with HeLa cells worked out at 18.8 µM. Besides, in data set [4], the “Nature of inhibitor-enzyme interaction by ESMS” value is “irreversible”.

In the case of `Cc1ccc(CC(=S)N2CCOCC2)cc1` [L2-07, 2-(4-methylphenyl)-1-morpholin-4-ylethanethione], inhibition in data set [1] was half-maximal at 6.5 µM (IC50). Moreover, in the data set on M. tuberculosis H37Rv [2], the “Mtb: antimicrobial activity against M. tuberculosis” value was “−” and the “Mtb: antimicrobial activity … (supplement table)” value is reported as “-”.

As to `COc1ccc(CC(=S)N2CCOCC2)cc1` [L2-09, 2-(4-methoxyphenyl)-1-morpholin-4-ylethanethione], in data set [1], the IC50 worked out at 3.3 µM. Also, in the data set with M. tuberculosis H37Rv [2], the “Mtb: antimicrobial activity against M. tuberculosis” value was “−” and the “Mtb: antimicrobial activity … (supplement table)” value was “-”.

`COC(=O)c1cccc(C(=O)Oc2ccc(OC(=O)c3cccc(C(=O)OC)n3)c(Cl)c2)n1` [L2-10, 6-O-[3-chloro-4-(6-methoxycarbonylpyridine-2-carbonyl)oxyphenyl]2-O-methyl pyridine-2,6-dicarboxylate] came in with an IC50 in data set [1] of 1 µM. In the data set on M. tuberculosis H37Rv [3], the MIC was 13.6 µM (≈ 6.4 µg/mL). Further, the inhibitory constant (Ki) in data set [5] stood at 680 µM. Moreover, in the data set on M. tuberculosis H37Rv [2], the “Mtb: antimicrobial activity against M. tuberculosis” value is recorded as “+”, the “Mtb: antimicrobial activity … (supplement table)” value is “+” and the “Growth inhibition” value is “inhibited growth at both concentrations”. In addition, the “TC50, cytotoxicity in HeLa cells” value with HeLa cells came to 157.2 µM. The “Nature of inhibitor-enzyme interaction by ESMS” value in data set [4] is reported as “not definitive”.

Turning to `O=C(O)CSC(=S)Nc1cccnc1` [L2-11, 2-(pyridin-3-ylcarbamothioylsulfanyl)acetic acid], the IC50 in data set [1] turned out to be 13.1 µM. Also, in the data set on M. tuberculosis H37Rv [2], the “Mtb: antimicrobial activity against M. tuberculosis” value is recorded as “−” and the “Mtb: antimicrobial activity … (supplement table)” value was “-”.

`S=C(Cc1ccccc1)N1CCCCC1` [L2-12, 2-phenyl-1-piperidin-1-ylethanethione] had a half-maximal inhibitory concentration (IC50) in data set [1] of 6 µM. Moreover, the MIC in the data set with M. tuberculosis H37Rv [3] (setting [6]) was determined as 28.6 µM (≈ 6.27 µg/mL). Besides, the affinity in data set [5] corresponds to a Ki of 80 µM. Besides, in the data set on M. tuberculosis H37Rv [2], the “Mtb: antimicrobial activity against M. tuberculosis” value was “+”, the “Mtb: antimicrobial activity … (supplement table)” value is “+” and the “Growth inhibition” value was “inhibited growth at both concentrations”. In addition, the “TC50, cytotoxicity in HeLa cells” value in the data set with HeLa cells is on record as 406 µM. Moreover, the “Nature of inhibitor-enzyme interaction by ESMS” value in data set [4] was “irreversible”.

Consider `CCOc1ccc(CCNC(=O)Cn2sc3nc(C)cc(C)c3c2=O)cc1` [L2-13, 2-(4,6-dimethyl-3-oxo-[1], [2]thiazolo[5,4-b]pyridin-2-yl)-N-[2-(4-ethoxyphenyl)ethyl]acetamide], for which half-maximal inhibition in data set [1] (IC50) required 7.7 µM. Also, the MIC in the data set on M. tuberculosis H37Rv [3] is given as 16.2 µM (≈ 6.24 µg/mL). This compound came in with an inhibitory constant (Ki) in data set [5] of 930 µM. Besides, in the data set with M. tuberculosis H37Rv [2], the “Mtb: antimicrobial activity against M. tuberculosis” value is recorded as “+”, the “Mtb: antimicrobial activity … (supplement table)” value is on record as “+” and the “Growth inhibition” value was “inhibited growth at both concentrations”. Further, the “TC50, cytotoxicity in HeLa cells” value in the data set on HeLa cells worked out at 36.4 µM. Further, in data set [4], the “Nature of inhibitor-enzyme interaction by ESMS” value is given as “irreversible”.

In data set [1], `CNC(=O)COc1ccccc1O` [L2-15, 2-(2-hydroxyphenoxy)-N-methylacetamide] registered an IC50 of 5.7 µM. In the data set on M. tuberculosis H37Rv [2], the “Mtb: antimicrobial activity against M. tuberculosis” value is on record as “−” and the “Mtb: antimicrobial activity … (supplement table)” value was “-”.

Take `O=C1Nc2ccccc2C(=O)C1(O)O` [L2-16, 3,3-dihydroxy-1H-quinoline-2,4-dione]: the IC50 in data set [1] amounted to 5.2 µM. Further, the MIC with M. tuberculosis H37Rv [3] (setting [6]) came out at 32.4 µM (≈ 6.26 µg/mL). This compound had an inhibition constant Ki in data set [5] of 20 µM. For the same compound, in the data set with M. tuberculosis H37Rv [2], the “Mtb: antimicrobial activity against M. tuberculosis” value is “+”, the “Mtb: antimicrobial activity … (supplement table)” value is reported as “+” and the “Growth inhibition” value is recorded as “inhibited growth at both concentrations”. Further, the “TC50, cytotoxicity in HeLa cells” value in the data set with HeLa cells came to 33.7 µM. Besides, the “Cytotoxicity relative to MIC” value with HeLa cells (compared with MIC against M. tuberculosis) is on record as “cytotoxic at slightly above its MIC”. The “Nature of inhibitor-enzyme interaction by ESMS” value in data set [4] is “reversible”.

In data set [1], `O=C(c1cccs1)c1no[n+]([O-])c1C(=O)c1cccs1` [L2-18, 1,1′-(2-oxido-1,2,5-oxadiazole-3,4-diyl)-bis (1-(2-thienyl))-methanone] registered an IC50 of 4.9 µM. In the data set with M. tuberculosis H37Rv [2], the “Mtb: antimicrobial activity against M. tuberculosis” value was “−” and the “Mtb: antimicrobial activity … (supplement table)” value is reported as “-”.

Source of the values: article PMC3102704, “New Classes of Alanine Racemase Inhibitors Identified by High-Throughput Screening Show Antimicrobial Activity against Mycobacterium tuberculosis” (PLoS ONE, 2011).
